Measurements from ChEMBL document CHEMBL4041521, “3-Aroylindoles display antitumor activity in vitro and in vivo: Effects of N1-substituents on biological activity” (Eur J Med Chem, 2017).
Active and inactive are the calls of the source. The calls are words filed in the database; no cut-off is given here.

Columns and labels:
[1] = target: T1, Protein deacetylase HDAC6 (Homo sapiens, UniProt Q9UBN7); assay: Inhibition of recombinant human HDAC6 using fluorogenic substrate by fluorescence assay
T1 sequence (Q9UBN7 whole entry): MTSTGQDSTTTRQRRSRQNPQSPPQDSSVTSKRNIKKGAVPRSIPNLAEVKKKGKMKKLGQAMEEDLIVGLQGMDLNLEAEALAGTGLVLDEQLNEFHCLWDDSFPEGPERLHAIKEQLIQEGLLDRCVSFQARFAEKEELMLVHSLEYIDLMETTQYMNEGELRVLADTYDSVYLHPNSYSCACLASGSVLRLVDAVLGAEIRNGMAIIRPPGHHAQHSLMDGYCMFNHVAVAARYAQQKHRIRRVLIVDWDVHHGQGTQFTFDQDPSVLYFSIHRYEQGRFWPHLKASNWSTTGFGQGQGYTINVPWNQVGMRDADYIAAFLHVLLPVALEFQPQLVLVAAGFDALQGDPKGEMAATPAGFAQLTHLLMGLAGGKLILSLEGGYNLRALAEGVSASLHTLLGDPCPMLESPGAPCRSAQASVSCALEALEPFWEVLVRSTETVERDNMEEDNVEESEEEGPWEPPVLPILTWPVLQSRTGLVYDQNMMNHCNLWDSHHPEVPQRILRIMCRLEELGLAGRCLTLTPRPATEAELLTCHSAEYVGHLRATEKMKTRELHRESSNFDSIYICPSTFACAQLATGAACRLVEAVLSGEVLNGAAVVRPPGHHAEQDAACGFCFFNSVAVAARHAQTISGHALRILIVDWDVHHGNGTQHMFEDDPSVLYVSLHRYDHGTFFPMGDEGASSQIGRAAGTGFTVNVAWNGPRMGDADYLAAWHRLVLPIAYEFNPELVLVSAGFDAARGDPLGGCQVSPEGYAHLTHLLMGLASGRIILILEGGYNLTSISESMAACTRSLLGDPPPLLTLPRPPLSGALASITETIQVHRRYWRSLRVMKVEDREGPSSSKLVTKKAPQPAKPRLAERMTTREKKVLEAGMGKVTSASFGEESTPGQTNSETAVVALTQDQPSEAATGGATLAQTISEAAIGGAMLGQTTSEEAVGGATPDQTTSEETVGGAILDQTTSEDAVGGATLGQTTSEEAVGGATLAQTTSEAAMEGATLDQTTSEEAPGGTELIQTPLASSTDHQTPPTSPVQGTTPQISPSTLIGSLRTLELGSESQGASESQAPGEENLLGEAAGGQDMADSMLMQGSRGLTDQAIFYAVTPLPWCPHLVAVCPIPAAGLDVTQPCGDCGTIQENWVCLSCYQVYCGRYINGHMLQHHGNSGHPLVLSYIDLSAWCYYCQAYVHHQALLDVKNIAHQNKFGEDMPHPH

[2] = target: T2, Polyamine deacetylase HDAC10 (Homo sapiens, UniProt Q969S8); assay: Inhibition of recombinant human HDAC10 using fluorogenic substrate by fluorescence assay
T2 sequence (Q969S8 whole entry): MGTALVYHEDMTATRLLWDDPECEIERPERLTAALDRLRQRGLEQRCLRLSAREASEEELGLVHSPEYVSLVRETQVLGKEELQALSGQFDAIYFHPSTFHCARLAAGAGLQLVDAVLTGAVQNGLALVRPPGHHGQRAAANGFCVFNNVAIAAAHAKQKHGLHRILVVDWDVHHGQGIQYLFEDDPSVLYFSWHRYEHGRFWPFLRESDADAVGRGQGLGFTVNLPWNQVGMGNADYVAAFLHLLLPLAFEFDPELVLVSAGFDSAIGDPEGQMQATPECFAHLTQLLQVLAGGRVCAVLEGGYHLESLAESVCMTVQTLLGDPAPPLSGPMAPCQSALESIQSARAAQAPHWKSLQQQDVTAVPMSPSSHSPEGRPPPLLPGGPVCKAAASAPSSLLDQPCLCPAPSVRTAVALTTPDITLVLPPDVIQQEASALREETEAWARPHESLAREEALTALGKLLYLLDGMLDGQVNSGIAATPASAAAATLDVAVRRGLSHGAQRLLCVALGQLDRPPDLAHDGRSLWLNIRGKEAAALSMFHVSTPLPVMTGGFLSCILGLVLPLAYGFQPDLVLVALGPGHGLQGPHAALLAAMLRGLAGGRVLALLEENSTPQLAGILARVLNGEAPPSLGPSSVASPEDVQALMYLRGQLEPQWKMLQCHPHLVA

Histone deacetylase 9 = Histone deacetylase 9 (Homo sapiens, UniProt Q9UKV0); assay: Inhibition of recombinant human HDAC9 using fluorogenic substrate by fluorescence assay
[3] = Inhibition of HDAC activity in human HeLa cell nuclear extract using fluorometric substrate measured after 30 mins by fluorescence assay; type: cell-based
A549 = assay: Antiproliferative activity against human A549 cells measured after 48 hrs by sulforhodamine-B assay; type: functional, cell-based; settings: A549, 48 h
Homo sapiens = species on record: Homo sapiens; assay: Inhibition of tubulin polymerization in human PC3 cells assessed as […] in MPM2 expression at 0.01 to 10 uM by Western blot analysis; type: cell-based
Histone deacetylase 4 = Histone deacetylase 4 (Homo sapiens, UniProt P56524); assay: Inhibition of recombinant human HDAC4 using fluorogenic substrate by fluorescence assay
Histone deacetylase 11 = target: T3, Histone deacetylase 11 (Homo sapiens, UniProt Q96DB2); assay: Inhibition of recombinant human HDAC11 using fluorogenic substrate by fluorescence assay
T3 sequence (Q96DB2 whole entry): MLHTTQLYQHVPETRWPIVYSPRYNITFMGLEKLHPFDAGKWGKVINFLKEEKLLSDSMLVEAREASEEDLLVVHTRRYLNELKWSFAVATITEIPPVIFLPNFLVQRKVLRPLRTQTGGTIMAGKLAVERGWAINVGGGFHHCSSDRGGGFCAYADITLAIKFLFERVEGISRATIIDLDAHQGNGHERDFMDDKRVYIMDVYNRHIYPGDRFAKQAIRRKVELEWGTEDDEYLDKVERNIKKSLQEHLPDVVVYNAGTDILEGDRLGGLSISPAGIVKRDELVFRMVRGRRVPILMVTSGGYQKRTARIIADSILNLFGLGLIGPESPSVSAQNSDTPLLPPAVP

Histone deacetylase 8 = target: T4, Histone deacetylase 8 (Homo sapiens, UniProt Q9BY41); assay: Inhibition of recombinant human HDAC8 using fluorogenic substrate by fluorescence assay
T4 sequence (Q9BY41 whole entry): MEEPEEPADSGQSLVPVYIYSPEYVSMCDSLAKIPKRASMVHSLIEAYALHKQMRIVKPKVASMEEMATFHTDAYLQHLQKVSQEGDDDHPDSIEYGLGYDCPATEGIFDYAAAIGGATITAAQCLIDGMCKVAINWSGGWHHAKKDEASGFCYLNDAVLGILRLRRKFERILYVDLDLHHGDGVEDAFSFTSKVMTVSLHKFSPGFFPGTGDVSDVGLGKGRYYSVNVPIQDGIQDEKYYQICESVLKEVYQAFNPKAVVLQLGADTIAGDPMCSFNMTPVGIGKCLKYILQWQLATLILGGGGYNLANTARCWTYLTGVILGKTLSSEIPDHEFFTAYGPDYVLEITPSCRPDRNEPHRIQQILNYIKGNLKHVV

Histone deacetylase 5 = Histone deacetylase 5 (Homo sapiens, UniProt Q9UQL6); assay: Inhibition of recombinant human HDAC5 using fluorogenic substrate by fluorescence assay
Sequence of Histone deacetylase 5 (Q9UQL6 whole entry): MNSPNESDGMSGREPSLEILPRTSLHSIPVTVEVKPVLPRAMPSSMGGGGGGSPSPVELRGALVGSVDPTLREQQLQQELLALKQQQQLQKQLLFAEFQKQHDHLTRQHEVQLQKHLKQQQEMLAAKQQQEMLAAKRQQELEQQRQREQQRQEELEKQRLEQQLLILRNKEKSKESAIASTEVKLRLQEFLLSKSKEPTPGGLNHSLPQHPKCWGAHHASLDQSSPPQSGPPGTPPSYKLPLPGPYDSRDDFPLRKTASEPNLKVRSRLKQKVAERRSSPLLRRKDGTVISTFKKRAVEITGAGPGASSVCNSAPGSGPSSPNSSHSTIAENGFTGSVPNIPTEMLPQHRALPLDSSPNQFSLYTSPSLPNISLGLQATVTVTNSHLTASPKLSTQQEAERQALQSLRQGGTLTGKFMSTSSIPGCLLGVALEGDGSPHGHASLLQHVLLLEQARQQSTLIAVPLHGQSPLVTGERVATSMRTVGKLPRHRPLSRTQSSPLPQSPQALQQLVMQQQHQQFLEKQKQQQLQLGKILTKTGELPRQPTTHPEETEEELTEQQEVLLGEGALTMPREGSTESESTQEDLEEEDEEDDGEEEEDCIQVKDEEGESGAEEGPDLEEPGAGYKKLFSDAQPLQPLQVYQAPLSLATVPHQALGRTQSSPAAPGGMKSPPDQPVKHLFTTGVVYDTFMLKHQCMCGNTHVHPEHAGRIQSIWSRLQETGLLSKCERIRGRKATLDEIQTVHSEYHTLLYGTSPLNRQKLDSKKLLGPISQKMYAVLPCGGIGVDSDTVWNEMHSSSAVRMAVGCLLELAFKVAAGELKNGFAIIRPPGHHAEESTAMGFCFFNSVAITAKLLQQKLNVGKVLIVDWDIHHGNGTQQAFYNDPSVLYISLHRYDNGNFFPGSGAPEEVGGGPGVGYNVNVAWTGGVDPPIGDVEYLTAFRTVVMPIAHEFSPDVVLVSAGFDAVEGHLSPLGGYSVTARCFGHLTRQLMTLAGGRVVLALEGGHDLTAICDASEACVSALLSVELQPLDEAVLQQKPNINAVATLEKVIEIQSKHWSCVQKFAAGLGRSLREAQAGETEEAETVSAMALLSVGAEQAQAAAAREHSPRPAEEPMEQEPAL

Sequence of Histone deacetylase 4 (P56524 whole entry): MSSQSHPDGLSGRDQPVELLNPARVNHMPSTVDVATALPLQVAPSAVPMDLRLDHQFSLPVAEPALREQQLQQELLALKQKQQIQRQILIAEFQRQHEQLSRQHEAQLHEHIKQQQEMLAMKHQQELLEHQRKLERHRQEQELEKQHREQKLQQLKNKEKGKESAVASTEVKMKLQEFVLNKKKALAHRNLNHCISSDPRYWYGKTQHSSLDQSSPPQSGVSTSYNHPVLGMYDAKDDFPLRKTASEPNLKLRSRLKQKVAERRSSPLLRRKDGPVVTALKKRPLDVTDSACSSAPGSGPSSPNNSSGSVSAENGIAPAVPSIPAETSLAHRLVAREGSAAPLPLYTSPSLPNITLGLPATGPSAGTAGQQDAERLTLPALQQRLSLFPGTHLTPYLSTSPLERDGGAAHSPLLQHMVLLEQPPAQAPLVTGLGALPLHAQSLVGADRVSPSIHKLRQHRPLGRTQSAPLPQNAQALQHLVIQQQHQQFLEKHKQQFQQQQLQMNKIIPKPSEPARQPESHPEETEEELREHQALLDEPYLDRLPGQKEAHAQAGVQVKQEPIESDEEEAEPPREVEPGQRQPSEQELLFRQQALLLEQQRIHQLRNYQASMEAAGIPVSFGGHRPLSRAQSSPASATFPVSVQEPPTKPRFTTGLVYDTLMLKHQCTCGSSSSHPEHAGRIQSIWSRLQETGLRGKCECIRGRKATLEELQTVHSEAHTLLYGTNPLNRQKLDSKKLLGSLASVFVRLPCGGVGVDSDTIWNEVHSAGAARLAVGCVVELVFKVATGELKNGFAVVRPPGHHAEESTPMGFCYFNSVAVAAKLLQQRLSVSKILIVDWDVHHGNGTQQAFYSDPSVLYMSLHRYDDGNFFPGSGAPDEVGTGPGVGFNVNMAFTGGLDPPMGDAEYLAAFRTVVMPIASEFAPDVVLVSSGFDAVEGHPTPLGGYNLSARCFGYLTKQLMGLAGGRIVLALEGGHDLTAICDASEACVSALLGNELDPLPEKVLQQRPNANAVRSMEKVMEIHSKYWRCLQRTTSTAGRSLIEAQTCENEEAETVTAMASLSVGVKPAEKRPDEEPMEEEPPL
Sequence of Histone deacetylase 9 (Q9UKV0 whole entry): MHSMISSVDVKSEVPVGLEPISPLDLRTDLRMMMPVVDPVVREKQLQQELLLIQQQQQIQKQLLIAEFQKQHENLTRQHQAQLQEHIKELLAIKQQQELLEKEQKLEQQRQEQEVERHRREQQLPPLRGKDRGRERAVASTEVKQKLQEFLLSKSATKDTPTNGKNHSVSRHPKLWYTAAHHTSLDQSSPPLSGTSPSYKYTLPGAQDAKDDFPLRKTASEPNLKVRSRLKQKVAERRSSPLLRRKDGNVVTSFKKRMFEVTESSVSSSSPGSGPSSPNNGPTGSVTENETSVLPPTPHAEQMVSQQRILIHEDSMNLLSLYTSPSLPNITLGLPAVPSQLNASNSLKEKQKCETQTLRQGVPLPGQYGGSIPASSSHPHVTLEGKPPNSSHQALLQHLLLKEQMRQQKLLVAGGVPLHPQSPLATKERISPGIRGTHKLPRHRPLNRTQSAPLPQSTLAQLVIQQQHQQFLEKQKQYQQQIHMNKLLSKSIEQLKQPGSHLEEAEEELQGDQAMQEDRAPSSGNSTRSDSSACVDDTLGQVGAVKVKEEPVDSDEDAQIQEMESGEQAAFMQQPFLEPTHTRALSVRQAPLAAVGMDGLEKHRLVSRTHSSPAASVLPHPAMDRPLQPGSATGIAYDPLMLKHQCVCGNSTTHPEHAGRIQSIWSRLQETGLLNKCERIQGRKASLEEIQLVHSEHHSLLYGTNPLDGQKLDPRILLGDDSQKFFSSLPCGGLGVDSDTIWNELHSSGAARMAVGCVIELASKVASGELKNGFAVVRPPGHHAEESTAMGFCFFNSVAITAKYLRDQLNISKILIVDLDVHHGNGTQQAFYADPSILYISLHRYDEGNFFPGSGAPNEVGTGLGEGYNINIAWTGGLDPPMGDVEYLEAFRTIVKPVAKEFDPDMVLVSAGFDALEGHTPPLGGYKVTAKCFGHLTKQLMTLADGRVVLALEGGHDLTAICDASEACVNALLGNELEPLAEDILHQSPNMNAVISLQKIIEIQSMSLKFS

Row | Compound | IC50 [1] [nM] | IC50 ([2]; read-out: IC50) [nM] | IC50 (Histone deacetylase 9; read-out: IC50) [nM] | IC50 [3] [nM] | IC50 (A549) [nM] | inhibition (Homo sapiens) | IC50 (Histone deacetylase 4; read-out: IC50) [nM] | IC50 (Histone deacetylase 11) [nM] | IC50 (Histone deacetylase 8) [nM] | IC50 (Histone deacetylase 5) [nM] | IC50 [2] | IC50 (Histone deacetylase 9) | IC50 (Histone deacetylase 4)
1 | COc1ccc2c(C(=O)c3cc(OC)c(OC)c(OC)c3)cn(Cc3ccc(C(=O)NO)cc3)c2c1 | 64.5 | 8230 | 1680 | 611 | 206 | Active | 1980 | 651 | 390 | 1030 | – | – | –
2 | COc1ccc2c(C(=O)c3cc(OC)c(OC)c(OC)c3)cn(S(=O)(=O)c3cccc(/C=C/C(=O)NO)c3)c2c1 | 275 | – | – | 135 | 72.5 | Active | – | 8870 | 16200 | 356000 | Not Active | Not Active | Not Active
